# Legend:
# [1] = system: Arabidopsis thaliana; experiment: High-temperature stress resistance in pot culture (fresh weight of aboveground part), Example 2; assay type: in vivo, Arabidopsis thaliana (Col-0); settings: 0.5 mM in tap water, 37° C. for 5 days
# Protocol: The materials as used in Example 1 were used.
# Jiffy-7 (42 mm diameter, Sakata Seed Corporation) was used as culture soil for pot culture. On Jiffy-7 prepared on the Disposable Tray DT-3 (AS ONE CORPORATION), a grain of Arabidopsis thaliana seeds was seeded and the plant was allowed to grow in an artificial climate chamber (Nippon Medical & Chemical Instruments Co., Ltd.) maintained at a temperature of 22° C. for a daily cycle of 16 hours light and 8 hours darkness.
# On the third week after seeding, tap water (200 ml) containing 0.5 mM N-acetylglutamic acid was poured on the Disposable Tray. On the fourth week after seeding, the tray was transferred to an artificial climate chamber maintained at a temperature of 37° C. and subjected to the high-temperature treatment. When the tray was dried during the high-temperature treatment, tap water containing 0.5 mM N-acetylglutamic acid was added. The tray was removed from the artificial climate chamber 5 days after the initiation of the high-temperature treatment, and the weight of the aboveground part was measured.
# [2] = system: Arabidopsis thaliana; experiment: Oxidation stress resistance against methyl viologen (leaf chlorosis, chlorophyll content), Example 8; assay type: in vivo, Arabidopsis thaliana (Col-0); settings: with 5 μM methyl viologen, 2 days
# Protocol: A wild-type Arabidopsis thaliana strain (accession: Col-0) was used as an experimental material. Seeds were purchased from Inplanta Innovations Inc.
# A Murashige and Skoog Plant Salt Mixture 2.2 g (Nacalai tesque) and sucrose 10 g (FUJIFILM Wako) were dissolved in 1 l of pure water, a pH was adjusted to 5.8, and the resultant was sterilized in an autoclave (121° C., 20 minutes).
# Arabidopsis thaliana seeds were sterilized by incubation with the use of a Kitchen Haiter® (Kao Corporation) diluted to 2-fold with pure water for 3 minutes. After the seeds were washed with sterile water 3 times, the seeds soaked in sterile water were incubated at 4° C. in the dark for 1 day in order to germinate the seeds at the same time. […]
# Leaf chlorosis is observed in plants upon oxidation stress exposure. Thus, an extent of chlorosis was evaluated by measuring the content of the green pigment chlorophyll in leaves. The chlorophyll content was quantified in accordance with the method of Yamaguchi et al. (Nature Commun., Jun. 9, 2021; 12 [1]: 3480). […] The absorbance of the extract was measured at 647 nm and 664 nm, respectively, to calculate the chlorophyll content. The chlorophyll content was calculated in accordance with the formula: 19.43×A647+8.05×A664. The calculated value was divided by the plant weight per well, so as to eliminate the influence of individual sizes.
# [3] = system: HAC12; experiment: HAC12 gene expression by real-time PCR, Example 15; assay type: in vivo; settings: Arabidopsis thaliana; 0.1 mM in medium, 2 hours after application, 22° C.; read-out: HAC12 expression level, increase vs group not subjected to the treatment
# Protocol: The materials as used in Example 14 were used.
# A liquid medium containing a ½ Murashige and Skoog Plant Salt Mixture (Nacalai) and 1 (w/v) % sucrose (FUJIFILM Wako) was used as a growth medium.
# Arabidopsis thaliana seeds were sterilized with the use of a Kitchen Haiter® liquid (Kao Corporation) diluted to one-half concentration with distilled water for 3 minutes, washed 3 times with sterile distilled water, and then incubated at 4° C. overnight. The growth medium was dispensed at 1 ml/well on a 12-well microplate (IWAKI), 5 grains of the seeds were inoculated in each well, and the plate was transferred to the incubator (TOMY) to initiate growing. The incubator was maintained at a temperature of 22° C. for a daily cycle of 16 hours light and 8 hours darkness.
# N-acetylglutamic acid was applied to Arabidopsis thaliana 7 days after inoculation to the final concentration of 0.1 mM in the medium, followed by incubation for 2 hours or 6 hours. The incubator was maintained at a temperature of 22° C. for a daily cycle of 16 hours light and 8 hours darkness. After incubation, the samples were frozen with liquid nitrogen, and RNA was extracted using the RNeasy Plant Mini Kit […]. […]
# Thereafter, the relative expression levels of the target genes upon N-acetylglutamic acid treatment were calculated by the ΔΔCt method using the Cp values obtained by real-time PCR.
smiles,measurement,setting,value
CC(=O)N[C@@H](CCC(=O)O)C(=O)O [N-acetylglutamic acid],"fresh weight of the aboveground part, increase relative to the control group",[1],1.3 times
same,chlorophyll content of the MV-treated groups,"[2]; 0, 0.01, 0.1, and 0.4 mM, fresh weight basis",increased as the N-acetylglutamic acid concentration was increased
same,leaf chlorosis in MV-treated group,[2]; 0.4 mM,substantially no leaf chlorosis was observed
same,fold induction at 100 µM,[3],1.3

# From patent publication US20260324636A1, “COMPOSITION FOR PROVIDING PLANT WITH STRESS RESISTANCE” (KIRIN HOLDINGS KABUSHIKI KAISHA, priority 2022, published 2026)
